The test system of one data set is NCI-H460. Put plainly: Human cancer cell line growth inhibition, Lung-NSC NCI-H460. It counts as cell-based. The note with it: Lung-NSC NCI-H460, 48 hours. The method, then: (§1) Cancer Inst. […] Cancer Inst. Reports, Vol 81, No. 14, Page 1088, Jul.
(§2) The only difference is historical usage.
(§3) Percent Growths are calculated for each dose.
(§4) This is the "baseline count" or "Tzero reading".

In a further data set the test system is SK-MEL-5. Put plainly: Human cancer cell line growth inhibition, Melanoma SK-MEL-5. The format is cell-based. To be noted: Melanoma SK-MEL-5, 48 hours. As for the experimental part:
as §1, §2, §3, §4

Data set [1] concerns PS-388 Leukemia cell line. Put plainly: PS-388 mouse leukemia cell line growth inhibition. To be noted: Mouse Leukemia PS-388, 48 hours. The format is cell-based. As for the experimental part: as §2, §3, §4
For a further data set, the system named is OVCAR-3. As to the kind of experiment: Human cancer cell line growth inhibition, Ovarian OVCAR-3. The format is cell-based. The note with it: Ovarian OVCAR-3, 48 hours. As for the experimental part: as §1, §2, §3, §4
A further data set has as its system A4X8. As to the kind of experiment: Human cancer cell line growth inhibition, Renal A4X8. The format is cell-based. The note with it: Renal A4X8, 48 hours. As for the experimental part:
as §1, §2, §3, §4

In the next data set the test system is SF-2X5. Put plainly: Human cancer cell line growth inhibition, CNS SF-2X5. It counts as cell-based. To be noted: CNS SF-2X5, 48 hours. The method, then: as §1, §2, §3, §4
A further data set deals with KM20L2. Put plainly: Human cancer cell line growth inhibition, Colon KM20L2. The note with it: Colon KM20L2, 48 hours. The format is cell-based. The method, then: as §1, §2, §3, §4
For data set [2], the system named is LOX Human Melanoma Xenograft. As to the kind of experiment: LOX Human Melanoma Xenograft to Nude Mouse, T/C. It counts as in vivo. From the text:
(§5) Experimental Anticancer Activity of Dolastatin 10 in Murine in vivo Systems, T/C (μg/kg)
(In general: Xenograft models place foreign cells or tissue in a host animal.)

A further data set deals with M5076 Ovary Sarcoma. As to the kind of experiment: Murine in vivo system: M5076 Ovary Sarcoma, T/C.
Description: (§6) The synthesis of potentially useful peptides presents one of the most essential and promising approaches to new types of anticancer and immunosuppressant drugs. The Dolastatins, an unprecedented series of linear and cyclic antineoplastic and/or cytostatic peptides isolated from Indian Ocean sea hare Dolabella auricularia represent excellent leads for synthetic modification. The very productive sea hare Dolabella auricularia has produced a number of structurally distinct peptides with excellent antineoplastic activity. Presently dolastatin 10, a linear pentapeptide represents the most important member and is a potentially useful antineoplastic agent. […] Recently the total synthesis and absolute configuration of this structurally unique and biologically active peptide was reported.
as §5

Data set [3] relates to P388 Lymphocytic Leukemia. Put plainly: Murine in vivo system: P388 Lymphocytic Leukemia, T/C.
Description: as §6, §5

For another data set, the system named is Human Mammary Xenograft. Put plainly: Human Mammary Xenograft Nude Mouse, T/C. The format is in vivo.
Description: as §6, §5

Data set [4] relates to OVCAR-3 Human Ovary Xenograft. Put plainly: OVCAR-3 Human Ovary Xenograft Nude Mouse, T/C. The format is in vivo. The note with it: OVCAR-3 xenograft, dose 40 μg/kg.
Description: as §6, §5

For data set [5], the system named is L1210 Lymphocytic Leukemia. Put plainly: Murine in vivo system: L1210 Lymphocytic Leukemia, T/C.
Description: as §6, §5

For a further data set, the system named is B16 Melanoma. As to the kind of experiment: Murine in vivo system: B16 Melanoma, T/C.
Description: as §6, §5

In data set [6] the test system is MX-1 Human Mammary Xenograft. Put plainly: MX-1 Human Mammary Xenograft (Tumor Regression), T/C. The format is in vivo, Murine.
Description: as §6, §5

Data set [7] deals with L1210 murine leukemia cells. As to the kind of experiment: Activity against L1210 murine leukemia cells (IC50). The format is cell-based. From the text: A molecule (22c) was designed based on the conformational similarities with (6R)-isodolastatin 10 (See FIGS. 1a and 1b). The molecule was then synthesized by the procedure outlined in this application.
The mark [8] stands for this setting: LOX in separate experiments, dose 9.0 μg/kg.
[9] abbreviates: LOX in separate experiments, dose 26 μg/kg.
Setting [10] is: LOX in separate experiments, dose 43 μg/kg.

For the compound “Dov-Val-Dil-Dap methyl ester [compound 21]”, the GI-50 with NCI-H460 was determined as 0.0022 µg/mL; in the data set on SK-MEL-5, 0.0087 µg/mL; in the data set on OVCAR-3, 0.0035 µg/mL; in the data set on A4X8, 0.02 µg/mL; in the data set on SF-2X5, 0.0038 µg/mL; with KM20L2, 0.021 µg/mL. In addition, the LC-50 in the data set with NCI-H460, with SK-MEL-5, in the data set on OVCAR-3, with A4X8, in the data set with SF-2X5 and in the data set with KM20L2 was greater than 1 µg/mL each time. The TGI – broadly, the concentration giving total growth inhibition – in the data set on NCI-H460 was 0.021 µg/mL; with SK-MEL-5, greater than 1 µg/mL; in the data set on OVCAR-3, 0.026 µg/mL; in the data set on A4X8, greater than 1 µg/mL; in the data set with SF-2X5 it was greater than 0.035 µg/mL; in the data set with KM20L2 it was 0.23 µg/mL. In [1], this compound yielded an ED-50 of 0.0297 µg/mL.
Consider “Z-Val-Dil-Dap-Phenethylamine [compound 18]”, for which the GI-50 in the data set on NCI-H460 is 0.21 µg/mL; in the data set on SK-MEL-5, 0.29 µg/mL; with OVCAR-3, 0.051 µg/mL; in the data set on A4X8 it was 0.16 µg/mL; in the data set on SF-2X5 it was 0.14 µg/mL; with KM20L2, 0.24 µg/mL. Also, the LC-50 with NCI-H460 was greater than 1 µg/mL; in the data set with SK-MEL-5 it was greater than 1 µg/mL; in the data set with OVCAR-3, 0.99 µg/mL; with A4X8, greater than 1 µg/mL; in the data set with SF-2X5, greater than 1 µg/mL; with KM20L2 it was greater than 1 µg/mL. In addition, the TGI in the data set with NCI-H460 was 0.66 µg/mL; with SK-MEL-5, greater than 1 µg/mL; in the data set on OVCAR-3, 0.24 µg/mL; in the data set with A4X8 it was 0.52 µg/mL; in the data set on SF-2X5 it was 0.43 µg/mL; in the data set on KM20L2, 0.67 µg/mL. This compound gave an ED-50 in data set [1] greater than 1 µg/mL.
With `CC[C@H](C)[C@@H]([C@@H](CC(=O)N1CCC[C@H]1[C@H](OC)[C@@H](C)C(=O)N[C@@H](Cc1ccccc1)c1nccs1)OC)N(C)C(=O)[C@@H](NC(=O)[C@H](C(C)C)N(C)C)C(C)C` [Dolastatin 10], the T/C in data set [2] (setting [8]) was determined as 138; in data set [2] (LOX in separate experiments, dose 15 μg/kg), 192; in data set [2] (setting [9]), 181; in data set [2] (setting [10]), 340; in [2] (LOX, dose 3.25 μg/kg), 170; in data set [2] (LOX, dose 6.5 μg/kg) it was 206. For the same compound, the T/C in [2] (LOX, dose 13 μg/kg) was 301; in data set [2] (LOX, dose 26 μg/kg), 301; in data set [2] (LOX, dose 52 μg/kg) it was “toxic”; in the data set on M5076 Ovary Sarcoma (M5076, dose 3.25 μg/kg), 151; in the data set with M5076 Ovary Sarcoma (M5076, dose 6.5 μg/kg) it was 142; in the data set on M5076 Ovary Sarcoma (M5076, dose 13 μg/kg), 166. Further, the T/C result is given as “toxic” in the data set with M5076 Ovary Sarcoma (M5076, dose 26 μg/kg); 137 in [3] (P388, dose 1.63 μg/kg); 146 in [3] (P388, dose 3.25 μg/kg); 155 in data set [3] (P388, dose 6.5 μg/kg); “toxic” in data set [3] (P388, dose 13.0 μg/kg); 178 in the data set with Human Mammary Xenograft (dose 6.25 μg/kg). Also, the T/C with Human Mammary Xenograft (dose 13 μg/kg) is reported as 137; in the data set on Human Mammary Xenograft (dose 26 μg/kg), “Toxic”; in data set [4] it was 300; in data set [5] (L1210, dose 1.63 μg/kg) it was 120; in data set [5] (L1210, dose 3.25 μg/kg) it was 139; in data set [5] (L1210, dose 6.5 μg/kg) it was 135. For the same compound, the T/C in [5] (L1210, dose 13 μg/kg) was found to be 152; in the data set on B16 Melanoma (B16, dose 1.44 μg/kg), 142; in the data set with B16 Melanoma (B16, dose 3.4 μg/kg) it was 171; in the data set on B16 Melanoma (B16, dose 4.0 μg/kg), 205; in the data set on B16 Melanoma (B16, dose 6.67 μg/kg) it was 182; with B16 Melanoma (B16, dose 11.11 μg/kg), 238. Besides, the cures was 17% in [2] (setting [8]); 33% in [2] (setting [9]); 50% in data set [2] (setting [10]); 17% in [2] (LOX, dose 3.25 μg/kg); 33% in data set [2] (LOX, dose 6.5 μg/kg); 50% in data set [2] (LOX, dose 13 μg/kg). The cures amounted to 67% in [2] (LOX, dose 26 μg/kg); 17% in data set [3] (P388, dose 3.25 μg/kg); 17% in data set [3] (P388, dose 6.5 μg/kg); 40% with B16 Melanoma (B16, dose 11.11 μg/kg). The “T/C (Tumor Regression)” value is reported as 69 in [6] (MX-1, dose 6.25 μg/kg); 61 in data set [6] (MX-1, dose 13 μg/kg); 50 in data set [6] (MX-1, dose 26 μg/kg); 14 in data set [6] (MX-1, dose 52 μg/kg).
In the case of `CC[C@H](C)[C@@H]([C@@H](CC(=O)N1CCC[C@H]1CCC(=O)N[C@@H](CCSC)C(=O)OC)OC)N(C)C(=O)[C@@H](NC(=O)[C@H](C(C)C)N(C)C)C(C)C` [22c, Dov-val-dil-desmethoxy-desmethyl-dolaproine-methionine methyl ester], it took 4 µM to reach half-maximal inhibition in [7] (IC50).

The record behind these values is patent US5599902A, “Cancer inhibitory peptides” (Arizona Board of Regents acting on behalf of Arizona State …, priority 1994, dated 1997).
